# Laboratory results from US20120135923A1, “Use of Melanocortins to Treat Dyslipidemia” (IPSEN PHARMA, S.A.S., priority 2009, published 2012).
# Read-outs that look alike come from different tables or passages of the source.
# Tests used:
# Assay in all cases: cyclic AMP bioassay (ECL) in CHO-K1 cells
# Format in all cases: cell-based
# hMC1-R = target: T1, hMC1-R (Homo sapiens, UniProt Q01726)
# T1 construct: expressed in transfected cells; host or cells: CHO-K1
# hMC3-R = target: T2, hMC3-R (Homo sapiens, UniProt P41968)
# T2 construct: expressed in transfected cells; host or cells: CHO-K1
# hMC4-R = target: T3, hMC4-R (Homo sapiens, UniProt P32245)
# T3 construct: expressed in transfected cells; host or cells: CHO-K1
# Description: Intracellular cyclic AMP (cAMP) levels were determined by an electrochemiluminescence (ECL) assay (Meso Scale Discovery®, Gaithersburg, Md.; referred to hereinafter as MSD). […] Transgenic CHO-K1 cells stably expressing hMC receptor subtypes 1, 3, 4 or 5 were dispensed at a density of approximately 7,000 cells/well in 384-well Multi-Array®plates (MSD) containing integrated carbon electrodes and coated with anti-cAMP antibody. Increasing concentrations of the test compounds were added and the cells were incubated for approximately 40 minutes at approximately 37° C. […] At the end of the second incubation period read buffer (Tris-buffered solution containing an ECL co-reactant and Triton X-100 at ph 7.8) was added and the cAMP levels in the cell lysates were immediately determined by ECL detection with a Sector Imager 6000 Reader® (MSD). Data were analyzed using a computer-assisted non-linear regression analysis (XL fit; IDBS) and reported as either an EC50 value or a Kb value.
# The Kb value reflects the potency of an antagonist and is determined by Schild analysis. In brief, concentration-response curves of an agonist are carried out in the presence of increasing concentrations of an antagonist. […] It is calculated by extrapolating the line on a Schild plot to zero on the y-axis.
# hMC5-R = target: T4, hMC5-R (Homo sapiens, UniProt P33032)
# T4 construct: expressed in transfected cells; host or cells: CHO-K1
# T4 sequence (P33032 whole entry): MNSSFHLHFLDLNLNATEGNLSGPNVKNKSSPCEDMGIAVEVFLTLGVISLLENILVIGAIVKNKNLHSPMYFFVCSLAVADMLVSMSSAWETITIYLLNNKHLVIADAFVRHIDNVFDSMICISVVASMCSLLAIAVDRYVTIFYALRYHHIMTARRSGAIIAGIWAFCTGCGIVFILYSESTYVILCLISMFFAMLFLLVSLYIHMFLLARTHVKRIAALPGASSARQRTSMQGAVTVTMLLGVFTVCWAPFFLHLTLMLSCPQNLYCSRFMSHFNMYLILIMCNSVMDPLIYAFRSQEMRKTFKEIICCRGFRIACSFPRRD
# T3 sequence (P32245 whole entry): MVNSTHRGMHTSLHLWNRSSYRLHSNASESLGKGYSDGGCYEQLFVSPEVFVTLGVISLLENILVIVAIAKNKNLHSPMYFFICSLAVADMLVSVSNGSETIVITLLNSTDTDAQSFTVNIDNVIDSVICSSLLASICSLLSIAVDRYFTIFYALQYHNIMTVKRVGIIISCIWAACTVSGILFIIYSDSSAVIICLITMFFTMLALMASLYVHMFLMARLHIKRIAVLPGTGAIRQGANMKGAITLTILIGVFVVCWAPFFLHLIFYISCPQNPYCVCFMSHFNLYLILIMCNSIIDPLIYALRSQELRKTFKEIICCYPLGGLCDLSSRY
# T2 sequence (P41968 whole entry): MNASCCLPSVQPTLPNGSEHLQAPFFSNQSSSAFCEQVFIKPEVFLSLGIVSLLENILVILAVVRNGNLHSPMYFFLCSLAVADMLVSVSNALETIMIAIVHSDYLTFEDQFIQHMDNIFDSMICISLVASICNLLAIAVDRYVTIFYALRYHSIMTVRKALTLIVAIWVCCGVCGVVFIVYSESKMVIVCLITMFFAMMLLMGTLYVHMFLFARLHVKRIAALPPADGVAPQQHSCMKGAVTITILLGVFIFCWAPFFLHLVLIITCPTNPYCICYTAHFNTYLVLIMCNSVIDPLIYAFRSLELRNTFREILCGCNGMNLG
# T1 sequence (Q01726 whole entry): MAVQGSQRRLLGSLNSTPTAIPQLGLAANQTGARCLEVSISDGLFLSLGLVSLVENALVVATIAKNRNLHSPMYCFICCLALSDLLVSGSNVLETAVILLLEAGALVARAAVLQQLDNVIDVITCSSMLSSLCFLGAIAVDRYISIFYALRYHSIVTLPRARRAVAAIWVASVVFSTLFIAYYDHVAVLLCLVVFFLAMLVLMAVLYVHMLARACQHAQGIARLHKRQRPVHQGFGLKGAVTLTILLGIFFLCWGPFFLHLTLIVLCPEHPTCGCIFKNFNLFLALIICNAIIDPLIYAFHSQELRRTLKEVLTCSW
Structure (SMILES),EC50 (hMC3-R),EC50 (hMC4-R),other results
CCCC[C@H](NC(C)=O)C(=O)N[C@H]1CC(=O)NCCCC[C@@H](C(N)=O)NC(=O)[C@H](C)NC(=O)[C@H](Cc2c[nH]c3ccccc23)NC(=O)[C@H](CCCNC(=N)N)NC(=O)[C@@H](Cc2ccc3ccccc3c2)NC(=O)[C@H](Cc2c[nH]cn2)NC1=O [Ac-Nle-c(Asp-His-D-2-Nal-Arg-Trp-Ala-Lys)-NH2],,,"EC50 (hMC1-R; Table 9C/9D, read-out: EC50 hMC1-R): 0.619 nM"
CCCC[C@H](NC(C)=O)C(=O)N[C@@H]1C(=O)N[C@H](C)C(=O)N[C@@H](Cc2c[nH]cn2)C(=O)N[C@H](Cc2ccccc2)C(=O)N[C@@H](CCCNC(=N)N)C(=O)N[C@@H](Cc2c[nH]c3ccccc23)C(=O)N[C@H](C(N)=O)CSSC1(C)C [Ac-Nle-c(Pen-D-Ala-His-D-Phe-Arg-Trp-Cys)-NH2],1.89 nM,0.531 nM,
C[C@@H]1NC(=O)N(CC(=O)N[C@H]2CSSC[C@@H](C(N)=O)NC(=O)[C@H](Cc3c[nH]c4ccccc34)NC(=O)[C@H](CCCNC(=N)N)NC(=O)[C@@H](Cc3ccccc3)NC(=O)[C@H](Cc3cnc[nH]3)NC(=O)[C@@H](C)NC2=O)C1=O [Hydantoin(C(O)-(Ala-Gly))-c(Cys-D-Ala-His-D-Phe-Arg-Trp-Cys)-NH2],2.23 nM,0.241 nM,EC50 (hMC5-R): 516 nM
C[C@H]1NC(=O)[C@@H](NC(=O)CN2C(=O)N[C@@H](CCCNC(=N)N)C2=O)CSSC[C@@H](C(N)=O)NC(=O)[C@H](Cc2c[nH]c3ccccc23)NC(=O)[C@H](CCCNC(=N)N)NC(=O)[C@@H](Cc2ccccc2)NC(=O)[C@H](Cc2cnc[nH]2)NC1=O [Hydantoin(C(O)-(Arg-Gly))-c(Cys-D-Ala-His-D-Phe-Arg-Trp-Cys)-NH2],18.2 nM,0.503 nM,EC50 (hMC1-R): 8.81 nM
C[C@H]1NC(=O)[C@@H](NC(=O)[C@H](CCCNC(=N)N)N2C(=O)CNC2=O)CSSC[C@@H](C(N)=O)NC(=O)[C@H](Cc2c[nH]c3ccccc23)NC(=O)[C@H](CCCNC(=N)N)NC(=O)[C@@H](Cc2ccccc2)NC(=O)[C@H](Cc2cnc[nH]2)NC1=O [Hydantoin(C(O)-(Gly-Arg))-c(Cys-D-Ala-His-D-Phe-Arg-Trp-Cys)-NH2],5.17 nM,0.599 nM,EC50 (hMC1-R): 8.85 nM
N=C(N)NCCC[C@@H]1NC(=O)[C@@H](Cc2ccccc2)NC(=O)[C@H](Cc2cnc[nH]2)NC(=O)[C@H](CCC(=O)O)NC(=O)[C@@H](NC(=O)CN2C(=O)CNC2=O)CSSC[C@@H](C(N)=O)NC(=O)[C@H](Cc2c[nH]c3ccccc23)NC1=O [Hydantoin(C(O)-(Gly-Gly))-c(Cys-Glu-His-D-Phe-Arg-Trp-Cys)-NH2],,,"EC50 (hMC1-R; Table 11, read-out: EC50 hMC1): 124 nM; EC50 (hMC3-R; Table 11, read-out: EC50 hMC3): 8.05 nM"
CCCC[C@@H](C(=O)N[C@H]1CSSC[C@@H](C(N)=O)NC(=O)[C@H](Cc2c[nH]c3ccccc23)NC(=O)[C@H](CCCNC(=N)N)NC(=O)[C@@H](Cc2ccccc2)NC(=O)[C@H](Cc2cnc[nH]2)NC(=O)[C@@H](C)NC1=O)N1C(=O)N[C@@H](CC(C)C)C1=O [Hydantoin(C(O)-(Leu-Nle))-c(Cys-D-Ala-His-D-Phe-Arg-Trp-Cys)-NH2],9.68 nM,1.83 nM,
CCCC[C@@H](C(=O)N[C@H]1CSSC[C@@H](C(N)=O)NC(=O)[C@H](Cc2c[nH]c3ccccc23)NC(=O)[C@H](CCCNC(=N)N)NC(=O)[C@@H](Cc2ccccc2)NC(=O)[C@H](Cc2cnc[nH]2)NC(=O)[C@@H](C)NC1=O)N1C(=O)N[C@@H](C(C)C)C1=O [Hydantoin(C(O)-(Val-Nle))-c(Cys-D-Ala-His-D-Phe-Arg-Trp-Cys)-NH2],4.61 nM,0.977 nM,
